Assay results from paper PMC11284788, “NN1213 – A Potent, Long-Acting, and Selective Analog of Human Amylin” (Journal of Medicinal Chemistry, 2024).
Like-named read-outs stand apart in the source and are kept apart here. Numbered stars: 1 amine (or outer) side, 2 acyl side, 3 side chain; on linkers, the order of the positions; unused ones are H or OH. Bridge positions count the residues as written; N and C are the ends. Peptide text beside a SMILES is read from it. * marks the point of attachment. C20 diacid = O=C(O)CCCCCCCCCCCCCCCCCCC(=O)*; γGlu = O=C(O)[C@H](CCC(=O)[*:2])N[*:1]

Columns and labels:
[1] = HMWP content by size-exclusion chromatography; type: physicochemical; details: analogs 10–21 (pH 4.0 series); covalent dimers and polymers prior to fibril formation testing, SEC, % of total absorbance area at 215 nm
Procedure, shortened: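 Amylin analogs analysed before fibril-formation testing by isocratic SEC in 0.5 M NaCl, 10 mM sodium dihydrogen phosphate, 5 mM ortho-phosphoric acid, 50% (v/v) 2-propanol. HMWP (covalent dimers/polymers) given as peak absorbance area percentage of total, assuming equal extinction coefficients for HMWP and main peak.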

[2] = biological target: T1, rCTR (Rattus norvegicus, UniProt P32214); test: scintillation proximity binding assay, rCTR membranes
T1 construct: expressed in transfected cells; host or cells: BHK tk-ts 13, transient (FuGENE 6)
T1 sequence (P32214 25-479 isoform P32214-2 limits assumed): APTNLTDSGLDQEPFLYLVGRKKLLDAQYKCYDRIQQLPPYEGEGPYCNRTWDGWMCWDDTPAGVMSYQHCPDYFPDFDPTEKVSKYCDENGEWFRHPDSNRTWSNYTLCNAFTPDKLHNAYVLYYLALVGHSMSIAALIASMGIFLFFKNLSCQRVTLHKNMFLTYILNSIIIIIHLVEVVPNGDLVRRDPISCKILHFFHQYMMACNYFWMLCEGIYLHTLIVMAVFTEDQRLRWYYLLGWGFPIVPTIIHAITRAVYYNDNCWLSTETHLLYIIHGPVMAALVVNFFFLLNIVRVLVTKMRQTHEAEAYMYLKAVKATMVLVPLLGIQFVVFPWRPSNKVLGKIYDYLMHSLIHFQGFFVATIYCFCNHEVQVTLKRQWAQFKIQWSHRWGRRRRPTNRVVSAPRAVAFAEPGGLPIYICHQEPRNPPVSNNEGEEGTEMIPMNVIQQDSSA
Experimental: The apparent binding affinities were determined using a scintillation proximity assay with beads from PerkinElmer and cell membranes containing the AMY3R or CTRs. […] Membranes were harvested and membranes were prepared and kept at −80 °C until use. The assay was performed in a 384-well Optiplate (PerkinElmer). Membranes were mixed with scintillation proximity assay beads in a 1:1 ratio. […] Samples were analyzed on a TopCounter (Packard). The IC50 values were calculated using GraphPad Prism. See Supporting Information S7: SAR Screening Assay Methods (Binding Assays (Human and Rat)) for more information.
Binding Assays (Human and Rat). Brief descriptions of the methods used to determine binding affinities for SAR analysis are described below. Curves and IC50 values were plotted and calculated in GraphPad Prism using nonlinear regression (one site binding competition analysis), with pIC50 values […]
values were used to calculate the binding affinity ratios in order to express the selectivity of compounds for the AMY3R versus the CTR.
CTR Binding Assay. The binding assay was performed using scintillation proximity assay (SPA) beads (RPNQ0001) from PerkinElmer and cell membranes containing either the hCTR or rCTR. BHK […]
Membranes were prepared in the following way: the cells were rinsed with PBS and incubated with Versene for approximately 5 min before harvesting. The cells were flushed with PBS and the cell-suspension was centrifuged for 5 min at 1000 rpm. Cells were homogenized (Ultra Turrax) in a buffer […]
containing 20 mM Na-HEPES and 0.1 mM EDTA (pH 7.4, buffer 2). The resulting pellet was re-suspended in buffer 2 and protein concentration was measured (BCA protein assay, Pierce). The homogenate was kept cold during the whole procedure. The membranes were stored at –80 °C until […]
The binding assay was performed in a 384-well Optiplate (PerkinElmer) in a total volume of 40 μL.
Membranes were mixed with SPA beads in a 1:1 ratio. […]
mg/well. Test compounds were dissolved in DMSO and further diluted in assay buffer (50 mM HEPES, pH 7.4, 1 mM CaCl2, 5 mM MgCl2, 0.1% ovalbumin, and 0.02% Tween-20).
Calcitonin (NEX422 PerkinElmer) was dissolved in assay buffer and added to the Optiplate at a final […]
prior to centrifugation (1500 rpm, 10 min). Samples were analyzed on TopCounter (Packard).

[3] = ThT assay: fibril formation propensity and peptide recovery; type: physicochemical; details: for ThT, pH 4.0 lag-time: 250 μM peptide, 10 mM glycylglycine pH 4.0, 1 μM ThT, 37 °C, 960 rpm, 45 h, lowest of four replicas, average of experiments; for recovery: pH 4.0, residual dissolved peptide after 45 h of shaking, centrifugation and 0.22 μm filtration, HPLC, relative to amount before stress
Procedure, shortened: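 Peptides at 250 μM in 10 mM glycylglycine (pH 4.0) or HEPES (pH 7.5) with 1 μM ThT, shaken at 37 °C, 960 rpm, for 45 h; ThT fluorescence (ex 444/em 485 nm) read every 20 min. Lag time is the lowest of four replicates (>45 h if none); recovery is soluble peptide by HPLC after centrifugation/filtration, relative to pre-stress.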

[4] = Solubility versus pH profile
[5] = SPA binding assay, Tables S13 and S15
[6] = bis-tris-propane buffer, pH 6, aqueous buffer
[7] = bis-tris-propane buffer, pH 6.5, aqueous buffer
[8] = bis-tris-propane buffer, pH 7, aqueous buffer
[9] = bis-tris-propane buffer, pH 7.5, aqueous buffer
[10] = bis-tris-propane buffer, pH 8, aqueous buffer
[11] = lactate buffer, pH 4, aqueous buffer
[12] = lactate buffer, pH 5, aqueous buffer

SMILES	HMWP [1] [%]	rCTR pIC50 [2, 5]	ThT, pH 4.0 lag-time [3] [h]	recovery [3] [%]	solubility kinetic [4, 6] [µM]	solubility kinetic [4, 7] [µM]	solubility kinetic [4, 8] [µM]	solubility kinetic [4, 9] [µM]	solubility kinetic [4, 10] [µM]	solubility kinetic [4, 11] [µM]	solubility kinetic [4, 12] [µM]	IC50 ([2]; SPA binding assay, Tables S13 and S15, read-out: rCTR pIC50 (converted)) [nM]	IC50 ([2]; SPA, BHK cell membranes, 125I-Calcitonin 75 pM, 120 min 25 °C, read-out: rCTR IC50) [nM]
CC[C@H](C)[C@H](NC(=O)[C@H](C)NC(=O)CNC(=O)[C@H](Cc1ccccc1)NC(=O)[C@H](CC(N)=O)NC(=O)[C@@H]1CCCN1C(=O)[C@H](CO)NC(=O)[C@H](CO)NC(=O)[C@H](Cc1c[nH]cn1)NC(=O)[C@H](CCCNC(=N)N)NC(=O)[C@H](CC(C)C)NC(=O)[C@H](Cc1ccccc1)NC(=O)[C@H](CCC(=O)O)NC(=O)[C@H](C)NC(=O)[C@H](CC(C)C)NC(=O)[C@H](CCCNC(=N)N)NC(=O)[C@H](CCC(N)=O)NC(=O)[C@@H](NC(=O)[C@H](C)NC(=O)[C@@H]1CSSC[C@H](NC(=O)[C@H](CCCCN)NC(=O)CC[C@H](NC(=O)CCCCCCCCCCCCCCCCCCC(=O)O)C(=O)O)C(=O)N[C@@H](CC(N)=O)C(=O)N[C@@H]([C@@H](C)O)C(=O)N[C@@H](C)C(=O)N[C@@H]([C@@H](C)O)C(=O)N1)[C@@H](C)O)C(=O)N1CCC[C@H]1C(=O)N[C@@H](CO)C(=O)N[C@@H](CO)C(=O)N[C@H](C(=O)N[C@@H](CC(N)=O)C(=O)N[C@H](C(=O)NCC(=O)N1CCC[C@H]1C(=O)N[C@@H](CC(N)=O)C(=O)N[C@H](C(=O)N[C@@H](Cc1ccc(O)cc1)C(N)=O)[C@@H](C)O)C(C)C)[C@@H](C)O [Peptide 12] ({C20 diacid-γGlu}-KCNTATCATQRLAEFLRHSSPNFGAIPSSTNVGPNTY-NH2; disulfide 2-7)	3.9	8.22	>45	78	≥ 200	≥ 200	≥ 200	≥ 200	≥ 200	≥ 200	≥ 200		
CC[C@H](C)[C@H](NC(=O)[C@H](C)NC(=O)CNC(=O)[C@H](Cc1ccccc1)NC(=O)[C@H](CC(N)=O)NC(=O)[C@@H]1CCCN1C(=O)[C@H](CO)NC(=O)[C@H](CO)NC(=O)[C@H](Cc1c[nH]cn1)NC(=O)[C@H](CCCNC(=N)N)NC(=O)[C@H](CC(C)C)NC(=O)[C@H](Cc1ccccc1)NC(=O)[C@H](CC(N)=O)NC(=O)[C@H](C)NC(=O)[C@H](CC(C)C)NC(=O)[C@H](CCCNC(=N)N)NC(=O)[C@H](CCC(N)=O)NC(=O)[C@@H](NC(=O)[C@H](C)NC(=O)[C@@H]1CSSC[C@H](NC(=O)[C@H](CCCCN)NC(=O)CC[C@H](NC(=O)CCCCCCCCCCCCCCCCCCC(=O)O)C(=O)O)C(=O)N[C@@H](CC(N)=O)C(=O)N[C@@H]([C@@H](C)O)C(=O)N[C@@H](C)C(=O)N[C@@H]([C@@H](C)O)C(=O)N1)[C@@H](C)O)C(=O)N1CCC[C@H]1C(=O)N[C@@H](CO)C(=O)N[C@@H](CO)C(=O)N[C@H](C(=O)N[C@@H](CC(N)=O)C(=O)N[C@H](C(=O)NCC(=O)N[C@@H](CO)C(=O)N[C@@H](CCCCN)C(=O)N[C@H](C(=O)N[C@@H](Cc1ccc(O)cc1)C(N)=O)[C@@H](C)O)C(C)C)[C@@H](C)O [Peptide 13]	2.1	7.05	35	99	≥ 200	≥ 200	≥ 200	≥ 200	≥ 200	≥ 200	≥ 200		
CC[C@H](C)[C@H](NC(=O)[C@H](C)NC(=O)CNC(=O)[C@H](Cc1ccccc1)NC(=O)[C@H](CC(N)=O)NC(=O)[C@@H]1CCCN1C(=O)[C@H](CO)NC(=O)[C@H](CO)NC(=O)[C@H](Cc1c[nH]cn1)NC(=O)[C@H](CCCNC(=N)N)NC(=O)[C@H](CC(C)C)NC(=O)[C@H](Cc1ccccc1)NC(=O)[C@H](CC(N)=O)NC(=O)[C@H](C)NC(=O)[C@H](CC(C)C)NC(=O)[C@H](CCCNC(=N)N)NC(=O)[C@H](CCC(N)=O)NC(=O)[C@@H](NC(=O)[C@H](C)NC(=O)[C@@H]1CSSC[C@H](NC(=O)[C@@H](N)CCCCNC(=O)CC[C@H](NC(=O)CCCCCCCCCCCCCCCCCCC(=O)O)C(=O)O)C(=O)N[C@@H](CC(N)=O)C(=O)N[C@@H]([C@@H](C)O)C(=O)N[C@@H](C)C(=O)N[C@@H]([C@@H](C)O)C(=O)N1)[C@@H](C)O)C(=O)N1CCC[C@H]1C(=O)N[C@@H](CO)C(=O)N[C@@H](CO)C(=O)N[C@H](C(=O)N[C@@H](CC(N)=O)C(=O)N[C@H](C(=O)NCC(=O)N[C@@H](CO)C(=O)N[C@@H](CCCCN)C(=O)N[C@H](C(=O)N[C@@H](Cc1ccc(O)cc1)C(N)=O)[C@@H](C)O)C(C)C)[C@@H](C)O [Peptide 14]	3.0		>45	100	≥ 200	≥ 200	≥ 200	≥ 200	≥ 200	≥ 200	≥ 200	56.2	55.6
CC[C@H](C)[C@H](NC(=O)[C@H](C)NC(=O)CNC(=O)[C@H](Cc1ccccc1)NC(=O)[C@H](CC(N)=O)NC(=O)[C@@H]1CCCN1C(=O)[C@H](CO)NC(=O)[C@H](CO)NC(=O)[C@H](Cc1c[nH]cn1)NC(=O)[C@H](CCCNC(=N)N)NC(=O)[C@H](CC(C)C)NC(=O)[C@H](Cc1ccccc1)NC(=O)[C@H](CC(N)=O)NC(=O)[C@H](C)NC(=O)[C@H](CC(C)C)NC(=O)[C@H](CCCNC(=N)N)NC(=O)[C@H](CCC(N)=O)NC(=O)[C@@H](NC(=O)[C@H](C)NC(=O)[C@@H]1CSSC[C@H](NC(=O)[C@H](CCCCN)NC(=O)CC[C@H](NC(=O)CCCCCCCCCCCCCCCCCCC(=O)O)C(=O)O)C(=O)N[C@@H](CC(N)=O)C(=O)N[C@@H]([C@@H](C)O)C(=O)N[C@@H](C)C(=O)N[C@@H]([C@@H](C)O)C(=O)N1)[C@@H](C)O)C(=O)N1CCC[C@H]1C(=O)N[C@@H](CO)C(=O)N[C@@H](CO)C(=O)N[C@H](C(=O)N[C@@H](CC(N)=O)C(=O)N[C@H](C(=O)NCC(=O)N[C@@H](CCCNC(=N)N)C(=O)N[C@@H](CC(N)=O)C(=O)N[C@H](C(=O)N[C@@H](Cc1ccc(O)cc1)C(N)=O)[C@@H](C)O)C(C)C)[C@@H](C)O [Peptide 16]	2.2	7.02	>45	100	≥ 200	≥ 200	≥ 200	≥ 200	≥ 200	≥ 200	≥ 200		
